Source: patent US6841368B1, “Enzymatic production of difructose dianhydride IV from sucrose and relevant enzymes and genes coding for them” (priority 1999, dated 2005)
Like-named read-outs stand apart in the source and are kept apart here.

Experiments:
[1] = system: levan fructotransferase from A. ureafaciens K2032; test: Effect of additives on the activity of levan fructotransferase; type: biochemical
Procedure: (§1) The purified enzyme was 51,000 in molecular weight as measured by SDS-PAGE while being measured to have a molecular weight of 96,000 by gel filtration chromatography. Thus, it was identified as being a dimer in aqueous conditions. […] Also, it was of optimal activity at 55° C. […] Whereas being inhibited by Mn^2+, Fe^2+ and Hg^2+, the activity of the enzyme was enhanced by […] and Ca^2+.

[2] = type: biochemical, A. ureafaciens K2032
Procedure: A. ureafaciens K2032 was inoculated in a selective broth containing levan as a major carbon source and cultured at 30° C. for 72 hours in an incubator. Investigation into the growth and levan fructotransferase activity of the bacteria provided the knowledge that the largest enzyme activity is obtained after 10 hours of the incubation. From the culture incubated for 10 hours, the enzyme was purified (FIG. 5). In this regard, the purification was achieved by successively using acetone precipitation, ion exchange chromatography (DEAE 650-M and Mono Q), and gel filtration chromatography, resulting in producing levan fructotransferase with a specific activity of 2269 U/mg protein at an amount of 1.1 mg at a yield of 29.8% (Table 8).
as §1
The newly isolated levan fructotransferase structural gene is composed of 1566 bp which corresponds to 521 aa. The gene of the present invention has a signal sequence consisting of 99 bp (corresponding to 33 aa) at its N-terminus and therefore, the putative completed protein may be about 56 kDa in molecular weight. […] This levan fructotransferase gene is longer by 15 bases (5 amino acids) than is the levan fructotransferase gene derived from A. nicotinovorans GS-9. These two genes are 81% in the homology of amino acid sequence (76% in the homology of base sequence). Consequently, the levan fructotransferase gene of A. ureafaciens K2032 was identified as being new and its base sequence was registered in the GenBank, U.S.A. (Accession No. AF181254).

[3] = additive concentration 1 mM, control = 100
[4] = additive concentration 10 mM, control = 100

[Cl-].[K+] [KCl]
Relative activity [1, 3]: 89%

O=C(O)CN(CCN(CC(=O)O)CC(=O)O)CC(=O)O [EDTA, reference compound]
Relative activity [1, 3]: 95% | Relative activity [1, 4]: 94%

CCCCCCCCCCCCOS(=O)(=O)[O-].[Na+] [SDS, sodium dodecylsulfate, reference compound]
Relative activity [1, 3]: 101% | Relative activity [1, 4]: 32%

[Cl][Ni][Cl] [NiCl]
Relative activity [1, 3]: 74%

[Cl][Hg][Cl] [HgCl2]
Relative activity [1, 3]: 0% | Effect on the activity of the enzyme (in words) ([1]; metal ions): inhibited

[Cl][Fe][Cl] [FeCl2]
Relative activity [1, 3]: 4% | Effect on the activity of the enzyme (in words) ([1]; metal ions): inhibited

[Ca+2].[Cl-].[Cl-] [CaCl2]
Relative activity [1, 3]: 156% | Relative activity [1, 4]: 181% | Effect on the activity of the enzyme (in words) ([1]; metal ions): enhanced

Cl.N [NH4Cl]
Relative activity [1, 3]: 46%

[Cl-].[Na+] [NaCl]
Effect on the activity of the enzyme (in words) [1]: enhanced | Relative activity [1]: 125, 142%

[Cl][Mn][Cl] [MnCl2]
Relative activity [1, 3]: 9% | Effect on the activity of the enzyme (in words) ([1]; metal ions): inhibited

[Cl-].[Cl-].[Zn+2] [ZnCl2]
Relative activity [1, 3]: 23%

[Cl-].[Cl-].[Mg+2] [MgCl2]
Relative activity [1, 3]: 63%

[Cl-].[Li+] [LiCl]
Relative activity [1, 3]: 92%

B1: levan fructotransferase: enzyme purified from A. ureafaciens K2032 that produces DFA IV from levan; SEQ ID NO: 1 (protein)
chain: MTPAISRRAVLQGAGAGALALIFGGAVPPAARASAPGSLRAVYHMTPPSGWLCDPQRPVTTHGAYQLYYLHSDQNNGPGGWDHASTTDGVAFTHHGTVMPLRPDFPVWSGSAVVGTANTAGFGAGAVVALATQPTDGVRKYQEQYLYWSTDGGFTFTALPDPVIVNTDGRAATTPAEIENAEWFRDPKIHWDTARGEWVCVIGRLRYAAFYTSPNLRDWTLRRNFDYPNHALGGIECPDLFEITADDGTRHWVLAASMDAYGIGLPMTYAYWTGTWDGEQFHADDLTPQWLDWGWDWYAAVTWPSIDAPETKRLAIAWMNNWKYAARDVPTDASDGYNGQNSIVRELRLARQPGGWYTLLSTPVAALTNYVTATTTLPDRTVDGSAVLPWNGRAYEIELDIAWDTATNVGISVGRSPDGTRHTNIGKYGADLYVDRGPSDLAGYSLAPYSRAAAPIDPGARSVHLRILVDTQSVEVFVNAGHTVLSQQVHFAEGDTGISLYTDGGPAHFTGIVVREIGQAI
modifications: Arthrobacter ureafaciens K2032
pH range in which the enzyme maintains its stability [2]: 4-10.5 | Specific activity ([2]; after acetone precipitation, ion exchange and gel filtration chromatography): 2269 U/mg protein | Remnant activity ([2]; after standing at 50° C. for 30 min): ≥ 90% | Isoelectric point ([2]; levan fructotransferase encoded by lftA): 5.15 pH
